Experiments:
Format in all cases: in vivo, C57BL/6J male mice
[1] = system: Mitochondrial respiratory chain complexes; assay: BN-PAGE of mitochondrial respiratory chain complexes; conditions: quadriceps mitochondria, vs NC group
Procedure: Mitochondria were isolated from the quadriceps muscle using the Potter-Elvehjem method. To extract respiratory SCs, a sample buffer cocktail was prepared using 8 μL of digitonin (Invitrogen, USA) per 50 μg of protein, 4×5 μL of a sample buffer (Invitrogen, USA) per 50 μg of protein, and 7 μL of water per 50 μg of protein. Thereafter, the solution was mixed with mitochondria. The BN-PAGE run and transfer were performed. An Ox-Phos Rodent WB antibody cocktail (Invitrogen, USA) was reacted at room temperature for 2 hours. Then, a secondary antibody solution Alk-Phos (Invitrogen, USA) was reacted at room temperature for an hour. Immunoreactive bands were developed using chromogen (BCIP/NBT). Then, the bands in a final state were checked.

[2] = system: MyoD, Myf5, Myf6, Myogenin, Mef2, MuRF1, Atrogin1, FoxO3; assay: Real-time PCR of muscle strength-related genes
Procedure: (§1) After total RNA was isolated, total complementary DNA (cDNA) was synthesized. For real-time PCR analysis, template cDNA was diluted with RNAse-free water and used at a concentration of 25 ng/μL. Then, gene expression was analyzed using a QuantitTeck SYBR Green PCR kit (QIAGEN, Germany).
Each of the reaction solutions consisted of 10 μL of SYBR Green, 2 μL of a template, and 200 μM primers. RNAse-free water was added to a final volume of 20 μL, and reacted at 94° C. for 15 seconds, and then 58° C. and 72° C. for 30 seconds. The reaction solution was reacted 40 times at 65° C. for 30 seconds at 15 seconds per cycle. In this case, by monitoring the fluorescence signal for each cycle and analyzing the resulting threshold cycle (Ct), mRNA expression between the respective experimental groups was quantitatively analyzed using a CFX96 Real-time system (Bio-Rad, USA). GAPDH (Gene ID 14433) was used as an internal transcriptional marker, and the gene primers used for amplification were as follows: MyoD (myoblast determination protein 1, Gene ID 17927), Myf5 (Gene ID 17877), Myf6 (Gene ID 17878), Myogenin (Gene ID 17928), Mef2 (Gene ID 17260), MuRF1 (Gene ID […]), Atrogin1 (Gene ID 67731), FoxO3 (Gene ID 56484), CerS1 (Gene ID 93898(3)1), CIDEC1 (Gene ID 12700), SCD1 (Gene ID 20249), Adipsin (complement factor D, Gene ID 11537), Adiponectin (Gene ID 11450), Haptoglobin (Gene ID 15439), and Neuronatin (Gene ID 18111).

[3] = system: hepatic glucose-6-phosphatase (G6P); assay: Hepatic glucose-6-phosphatase measurement; conditions: DRH group vs NC group
[4] = system: differentially expressed genes (DEG); assay: RT-PCR and Western blotting verification of differentially expressed genes; conditions: verification of mRNA-seq results
Procedure: as §1
Each of the reaction solutions consisted of 10 μL of SYBR Green, 2 μL of a template, and 200 μM primers. RNAse-free water was added to a final volume of 20 μL, and reacted at 94° C. for 15 seconds, and then 58° C. and 72° C. for 30 seconds. The reaction solution was reacted 40 times at 65° C. for 30 seconds at 15 seconds per cycle. In this case, by monitoring the fluorescence signal for each cycle and analyzing the resulting threshold cycle (Ct), mRNA expression between the respective experimental groups was quantitatively analyzed using a CFX96 Real-time system (Bio-Rad, USA). […]
The amount of cytoplasmic and membrane proteins was quantified according to the Bradford method. […]

[5] = system: Akt, AMPK, PI3K, mTOR, PGC1-α, and phosphorylated variants thereof; assay: Western blotting of protein levels of muscle enhancement factors; conditions: DRH group vs NC group
Procedure: The amount of cytoplasmic and membrane proteins was quantified according to the Bradford method. Thereafter, a protein load was applied onto a 10% SDS-polyacrylamide gel, transferred to a Tris-glycine electrophoresis buffer for an hour, and then electrophoresed. The positions of the bands were confirmed using a Ponceau solution, blocking (5% skim milk in TBS/0.1% Tween-20) was performed at room temperature for 60 minutes in order to reduce non-specific reactions to the membrane. Then, the samples were reacted with a primary antibody overnight at 4° C.
Each of the antibodies was reacted with 5% skim milk diluted in the following ratios: Rabbit anti-mouse PGC1-α (1:1,000; Santa Cruz, USA), rabbit anti-mouse α-tubulin (1:1,000; Cell Signaling Technology, USA), rabbit anti-mouse p-Akt (1:1,000; Cell Signaling Technology, USA), rabbit anti-mouse Akt (1:1,000; Cell Signaling Technology, USA), rabbit anti-mouse p-PI3K (1:1,000; Cell Signaling Technology, USA), rabbit anti-mouse PI3K (1:1,000; Cell Signaling Technology), rabbit anti-mouse mTOR (1:1,000; Cell Signaling Technology, USA), rabbit anti-mouse TNF-α (1:1,000; Cell Signaling Technology, USA), rabbit anti-mouse adiponectin (1:1,000; Cell Signaling Technology, USA), rabbit anti-mouse haptoglobin (1:1,000; Abcam, USA), rabbit anti-mouse SCD1 (1:1,000; Cell Signaling Technology, USA), goat anti-mouse CerS1 (1:1,000; Novus Biologicals Ltd., USA), and rabbit anti-mouse NF-κB (1:000; Cell Signaling Technology, USA). The protein bands were washed, and the membrane was then reacted with a primary antibody in a TBST buffer (25 mM Tris-base, 155 mM NaCl, 0.1% Tween-20) in the presence of anti-rabbit IgG (1:1,000; Amersham Ltd., UK) or anti-goat IgG (1:1,000; ABcam Inc., USA) secondary antibodies for 30 minutes, and reacted at room temperature for an hour. Then, the membrane was washed again with a TBST buffer for 30 minutes. Immunoreactive bands were developed on a film using an ECL kit (Pierce Chemical Co., IL) to check the bands in a final state.

aged mice = assay: Fat and muscle weight
GSH, PON, GR = assay: Antioxidant enzyme activity in liver and plasma; conditions: DRH supplementation; decrease in NC vs YC
Procedure: To analyze antioxidant activity, superoxide dismutase (SOD) activity was measured in an alkaline state by pyrogallol autoxidation using a modified method of Marklund et al. Also, catalase (CAT) activity was measured using a modified method of Aebi et al. Paraoxonase (PON) activity was measured using a modified method of Mackness et al. in order to measure an increase in absorbance of p-nitrophenol. Glutathione reductase (GR) activity was measured using a modified method of Pinto and Bartley, which was used to measure NADPH oxidation. Total glutathione (GSH) content was measured using a modified method of Ellman et al.

[6] = decrease in NC vs YC, DRH vs NC significant

## O=C(CO)[C@H](O)[C@H](O)[C@H](O)CO [DRH, D-ribo-2-hexulose]
[1]
  mitochondrial respiratory chain Complex IV: significantly increased
[2]; all three groups (YC, NC, DRH)
  expression of Atrogin1 gene: no significant difference
  expression of FoxO3 gene: no significant difference
  expression of MuRF1 gene: no significant difference
  expression of MyoD gene: no significant difference
[2]; [6]
  expression of Myf5 gene: partially improved
  expression of Myf6 gene: partially improved
  expression of Myogenin gene: partially improved
[3]
  hepatic glucose-6-phosphatase (G6P): significantly increased
[4]
  RT-PCR analysis and Western blotting on DEG: consistent with those obtained by mRNA-seq analysis
[5]
  protein level of AMPK and phosphorylated variant: significantly increased
  protein level of Akt and phosphorylated variant: significantly increased
  protein level of PGC1-α: significantly increased
  protein level of PI3K and phosphorylated variant: significantly increased
  protein level of mTOR and phosphorylated variant: significantly increased
Aged mice; DRH group vs NC group
  ratio of the total weight of muscle tissue to the total weight of adipose tissue: significantly increased
  total weight of muscle tissue: no significant difference
Aged mice; DRH supplementation
  fat weight: reduced
GSH, PON, GR
  liver GR activity: increased
  liver GSH-Px activity: increased
  liver PON activity: increased
  plasma PON activity: increased

Source: patent US12582614B2, “Composition for preventing, alleviating or treating sarcopenia, containing D-ribo-2-hexulose as active ingredient” (KYUNGPOOK NATIONAL UNIVERSITY INDUSTRY-ACADEMIC COOPERATION …, priority 2021, dated 2026)
